Measurements: patent publication US9580437B2, “Triazolopyrimidine compounds and uses thereof” (Novartis AG, priority 2014, dated 2017)
pIC50: −log10 of the molar value.

Experiments:
[1] = biological target: wild type PRC2 (wtPRC2) complex (Homo sapiens (Human), UniProt O75530); assay: EED LC-MS assay; assay type: biochemical; conditions: read-out: (b) IC50 EED LC-MS Qualified
Procedure: A 6 μL solution of 3 μM of the peptide substrate H3K27Me0 (histone H3[21-44]-biotin) in reaction buffer was added to initiate each reaction. […] ELISA (H3K27 Methylation) Assay

EED (1-441)-His protein = EED (1-441)-His protein (Homo sapiens (Human), UniProt O75530); assay: EED-H3K27Me3 peptide competition binding assay by AlphaScreen; conditions: read-out: (a) IC50 EED Alphascreen binding Qualified
Chain of EED (1-441)-His protein (O75530 whole entry): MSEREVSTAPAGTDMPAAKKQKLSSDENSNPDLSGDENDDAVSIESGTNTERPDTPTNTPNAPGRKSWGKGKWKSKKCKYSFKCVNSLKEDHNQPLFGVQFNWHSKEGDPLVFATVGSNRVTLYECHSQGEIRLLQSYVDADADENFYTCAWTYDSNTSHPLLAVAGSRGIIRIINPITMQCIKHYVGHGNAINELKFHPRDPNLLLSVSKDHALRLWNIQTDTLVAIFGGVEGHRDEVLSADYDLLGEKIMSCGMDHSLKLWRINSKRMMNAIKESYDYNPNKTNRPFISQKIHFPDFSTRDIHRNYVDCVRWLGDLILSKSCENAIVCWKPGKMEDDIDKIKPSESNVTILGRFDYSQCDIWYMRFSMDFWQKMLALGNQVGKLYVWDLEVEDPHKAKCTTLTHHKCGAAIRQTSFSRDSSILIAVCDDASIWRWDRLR
Text: EED-H3K27Me3 peptide competition binding assay by AlphaScreen (α-screen)

Chain of wild type PRC2 (wtPRC2) complex (O75530 whole entry): as above
Chain of wild type PRC2 (wtPRC2) complex (Q15910 whole entry partner): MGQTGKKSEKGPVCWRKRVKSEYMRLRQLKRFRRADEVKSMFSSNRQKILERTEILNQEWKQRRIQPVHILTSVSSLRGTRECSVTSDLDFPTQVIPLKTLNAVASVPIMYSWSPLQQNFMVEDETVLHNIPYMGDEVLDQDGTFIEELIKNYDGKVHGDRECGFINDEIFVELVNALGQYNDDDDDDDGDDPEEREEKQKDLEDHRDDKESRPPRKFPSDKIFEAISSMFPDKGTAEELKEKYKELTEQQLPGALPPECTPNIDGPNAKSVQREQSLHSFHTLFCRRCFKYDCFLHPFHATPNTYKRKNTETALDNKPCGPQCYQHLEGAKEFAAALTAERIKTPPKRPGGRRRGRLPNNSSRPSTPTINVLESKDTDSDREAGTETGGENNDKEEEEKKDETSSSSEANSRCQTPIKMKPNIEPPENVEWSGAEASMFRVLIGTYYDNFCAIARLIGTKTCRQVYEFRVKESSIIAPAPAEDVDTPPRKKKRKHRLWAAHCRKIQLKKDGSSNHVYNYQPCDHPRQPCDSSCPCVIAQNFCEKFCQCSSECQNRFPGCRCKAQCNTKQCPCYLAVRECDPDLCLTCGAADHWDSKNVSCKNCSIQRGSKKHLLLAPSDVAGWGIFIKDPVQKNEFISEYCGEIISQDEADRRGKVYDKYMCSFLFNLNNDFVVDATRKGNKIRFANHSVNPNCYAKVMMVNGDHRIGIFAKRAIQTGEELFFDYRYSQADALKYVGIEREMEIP
Chain of wild type PRC2 (wtPRC2) complex (Q15022 whole entry partner): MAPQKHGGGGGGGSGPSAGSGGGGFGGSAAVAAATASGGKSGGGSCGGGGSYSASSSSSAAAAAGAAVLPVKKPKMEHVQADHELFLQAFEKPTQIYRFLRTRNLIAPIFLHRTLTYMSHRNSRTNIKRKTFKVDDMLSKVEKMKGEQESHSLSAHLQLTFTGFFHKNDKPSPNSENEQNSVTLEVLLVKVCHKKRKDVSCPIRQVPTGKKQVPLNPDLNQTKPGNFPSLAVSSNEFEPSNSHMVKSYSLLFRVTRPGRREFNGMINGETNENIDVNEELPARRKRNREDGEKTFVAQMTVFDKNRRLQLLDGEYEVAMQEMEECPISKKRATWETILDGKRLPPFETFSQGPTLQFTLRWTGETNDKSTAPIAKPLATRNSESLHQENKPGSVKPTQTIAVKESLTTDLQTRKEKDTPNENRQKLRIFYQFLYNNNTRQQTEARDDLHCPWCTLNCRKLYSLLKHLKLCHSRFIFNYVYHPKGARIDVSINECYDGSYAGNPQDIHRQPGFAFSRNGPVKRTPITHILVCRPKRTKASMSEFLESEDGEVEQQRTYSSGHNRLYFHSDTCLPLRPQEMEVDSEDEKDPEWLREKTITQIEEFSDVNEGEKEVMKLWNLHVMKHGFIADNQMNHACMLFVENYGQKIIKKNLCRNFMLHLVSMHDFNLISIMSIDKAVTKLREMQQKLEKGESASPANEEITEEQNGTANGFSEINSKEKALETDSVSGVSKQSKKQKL

pIC50 [1] | pIC50 (EED (1-441)-His protein) | SMILES
7.99 | 8.35 | CN(C)CCc1cccc(-c2cnc(NCc3cccc4c3CCO4)n3cnnc23)c1 [Example 89, N-((2,3-dihydrobenzofuran-4-yl)methyl)-8-(3-(2-(dimethylamino)ethyl)phenyl)-[1,2,4]triazolo[4,3-c]pyrimidin-5-amine]
6.65 | 7.17 | Cc1ncc(-c2cnc(NCc3c(F)ccc4c3CCO4)n3cnnc23)n1C [Example 245, 8-(1,2-dimethyl-1H-imidazol-5-yl)-N-((5-fluoro-2,3-dihydrobenzofuran-4-yl)methyl)-[1,2,4]triazolo[4,3-c]pyrimidin-5-amine]
7.70 | 8.16 | CN(C)Cc1ccc(-c2cnc(NCc3cccc4c3CCO4)n3cnnc23)cc1 [Example 11, N-((2,3-dihydrobenzofuran-4-yl)methyl)-8-(4-((dimethylamino)methyl)phenyl)-[1,2,4]triazolo[4,3-c]pyrimidin-5-amine]
7.86 | 8.38 | Cc1nc(F)ccc1-c1cnc(NCc2c(F)ccc3c2CCO3)n2cnnc12 [Example 164, N-((5-fluoro-2,3-dihydrobenzofuran-4-yl)methyl)-8-(6-fluoro-2-methylpyridin-3-yl)-[1,2,4]triazolo[4,3-c]pyrimidin-5-amine]
7.77 | 8.35 | Cc1nn(CCO)cc1-c1cnc(NCc2c(F)ccc3c2CCO3)n2cnnc12 [Example 190, 2-(4-(5-(((5-fluoro-2,3-dihydrobenzofuran-4-yl)methyl)amino)-[1,2,4]triazolo[4,3-c]pyrimidin-8-yl)-3-methyl-1H-pyrazol-1-yl)ethanol]
8.41 | 8.49 | Cc1nn(C(C)C)cc1-c1cnc(NCc2c(F)ccc3c2CCO3)n2cnnc12 [Example 4, N-((5-Fluoro-2,3-dihydrobenzofuran-4-yl)methyl)-8-(1-isopropyl-3-methyl-1H-pyrazol-4-yl)-[1,2,4]triazolo[4,3-c]pyrimidin-5-amine]
7.75 | 8.20 | CC(C)n1nccc1-c1cnc(NCc2c(F)ccc3c2CCO3)n2cnnc12 [Example 144, N-((5-fluoro-2,3-dihydrobenzofuran-4-yl)methyl)-8-(1-isopropyl-1H-pyrazol-5-yl)-[1,2,4]triazolo[4,3-c]pyrimidin-5-amine]
7.29 | 7.72 | Fc1ccc2c(c1CNc1ncc(-c3ccc(N4CCOCC4)nc3)c3nncn13)CCO2 [Example 92, N-((5-fluoro-2,3-dihydrobenzofuran-4-yl)methyl)-8-(6-morpholinopyridin-3-yl)-[1,2,4]triazolo[4,3-c]pyrimidin-5-amine]
7.84 | 8.33 | Cc1ncn(-c2cnc(NCc3c(F)ccc4c3CCO4)n3cnnc23)n1 [Example 238, N-((5-fluoro-2,3-dihydrobenzofuran-4-yl)methyl)-8-(3-methyl-1H-1,2,4-triazol-1-yl)-[1,2,4]triazolo[4,3-c]pyrimidin-5-amine]
6.95 | 6.44 | c1ccc(-c2cnc(NCc3cccc4occc34)n3cnnc23)cc1 [Example 217, N-(benzofuran-4-ylmethyl)-8-phenyl-[1,2,4]triazolo[4,3-c]pyrimidin-5-amine]
8.01 | 7.88 | O=C(c1ccc(-c2cnc(NCc3cccc4c3CCO4)n3cnnc23)cc1)N1CCNCC1 [Example 41, (4-(5-(((2,3-dihydrobenzofuran-4-yl)methyl)amino)-[1,2,4]triazolo[4,3-c]pyrimidin-8-yl)phenyl)(piperazin-1-yl)methanone]
8.02 | 8.12 | Cn1cc(-c2cnc(NCc3c(F)ccc4c3CCO4)n3cnnc23)c(C(F)F)n1 [Example 200, 8-(3-(difluoromethyl)-1-methyl-1H-pyrazol-4-yl)-N-((5-fluoro-2,3-dihydrobenzofuran-4-yl)methyl)-[1,2,4]triazolo[4,3-c]pyrimidin-5-amine]
7.61 | 8.28 | Cc1nn(C)cc1-c1cnc(NCc2cccc3c2CCO3)n2cnnc12 [Example 30, N-((2,3-dihydrobenzofuran-4-yl)methyl)-8-(1,3-dimethyl-1H-pyrazol-4-yl)-[1,2,4]triazolo[4,3-c]pyrimidin-5-amine]
8.05 | 8.09 | Cc1cnc(Cl)cc1-c1cnc(NCc2c(F)ccc3c2CCO3)n2cnnc12 [Example 228, 8-(2-chloro-5-methylpyridin-4-yl)-N-((5-fluoro-2,3-dihydrobenzofuran-4-yl)methyl)-[1,2,4]triazolo[4,3-c]pyrimidin-5-amine]

Further lines, the compound ahead of its results:

SMILES | pIC50 [1] | pIC50 (EED (1-441)-His protein)
Fc1ccc2c(c1CNc1ncc(-c3ccc(Cl)cc3Cl)c3nncn13)CCO2 [Example 146, 8-(2,4-dichlorophenyl)-N-((5-fluoro-2,3-dihydrobenzofuran-4-yl)methyl)-[1,2,4]triazolo[4,3-c]pyrimidin-5-amine] | 7.42 | 7.64
Cc1cc(OC(F)F)ncc1-c1cnc(NCc2c(F)ccc3c2CCO3)n2cnnc12 [Example 197, 8-(6-(difluoromethoxy)-4-methylpyridin-3-yl)-N-((5-fluoro-2,3-dihydrobenzofuran-4-yl)methyl)-[1,2,4]triazolo[4,3-c]pyrimidin-5-amine] | 8.24 | 8.66
Cc1cc(-c2cnc(NCc3cccc4c3CCO4)n3cnnc23)ccc1C(=O)N(C)C [Example 49, 4-(5-(((2,3-dihydrobenzofuran-4-yl)methyl)amino)-[1,2,4]triazolo[4,3-c]pyrimidin-8-yl)-N,N,2-trimethylbenzamide] | 7.89 | 7.90
Cc1c(-c2cnc(NCc3c(F)ccc4c3CCO4)n3cnnc23)cnn1C [Example 172, 8-(1,5-dimethyl-1H-pyrazol-4-yl)-N-((5-fluoro-2,3-dihydrobenzofuran-4-yl)methyl)-[1,2,4]triazolo[4,3-c]pyrimidin-5-amine] | 8.15 | 8.18
CC1(C)COC(c2ccc(-c3cnc(NCc4cccc5c4CCO5)n4cnnc34)cn2)=N1 [Example 101, N-((2,3-dihydrobenzofuran-4-yl)methyl)-8-(6-(4,4-dimethyl-4,5-dihydrooxazol-2-yl)pyridin-3-yl)-[1,2,4]triazolo[4,3-c]pyrimidin-5-amine] | 7.87 | 7.93
O=C1CNCCN1c1ccc(-c2cnc(NCc3cccc4c3CCO4)n3cnnc23)cn1 [Example 125, 1-(5-(5-(((2,3-dihydrobenzofuran-4-yl)methyl)amino)-[1,2,4]triazolo[4,3-c]pyrimidin-8-yl)pyridin-2-yl)piperazin-2-one] | 7.63 | 8.07
Cn1nccc1-c1cnc(NCc2c(F)ccc3c2CCO3)n2cnnc12 [Example 169, N-((5-fluoro-2,3-dihydrobenzofuran-4-yl)methyl)-8-(1-methyl-1H-pyrazol-5-yl)-[1,2,4]triazolo[4,3-c]pyrimidin-5-amine] | 8.18 | 8.35
OCCOc1ccc(-c2cnc(NCc3cccc4c3CCO4)n3cnnc23)cc1 [Example 38, 2-(4-(5-(((2,3-dihydrobenzofuran-4-yl)methyl)amino)-[1,2,4]triazolo[4,3-c]pyrimidin-8-yl)phenoxy)ethanol] | 7.46 | 7.62
N#Cc1ccc(-c2cnc(NCc3c(F)ccc4c3CCO4)n3cnnc23)cn1 [Example 93, 5-(5-(((5-fluoro-2,3-dihydrobenzofuran-4-yl)methyl)amino)-[1,2,4]triazolo[4,3-c]pyrimidin-8-yl)picolinonitrile] | 7.90 | 8.10
CN(C)CCc1ccc(-c2cnc(NCc3cccc4c3CCO4)n3cnnc23)cn1 [Example 53, N-((2,3-dihydrobenzofuran-4-yl)methyl)-8-(6-(2-(dimethylamino)ethyl)pyridin-3-yl)-[1,2,4]triazolo[4,3-c]pyrimidin-5-amine] | 7.54 | 7.91
Cn1cc(-c2cnc(NCc3c(F)ccc4c3CCO4)n3cnnc23)c(C(F)(F)F)n1 [Example 170, N-((5-fluoro-2,3-dihydrobenzofuran-4-yl)methyl)-8-(1-methyl-3-(trifluoromethyl)-1H-pyrazol-4-yl)-[1,2,4]triazolo[4,3-c]pyrimidin-5-amine] | 7.92 | 7.97
CS(=O)(=O)c1ccc(-c2cnc(NCc3c(F)ccc4c3CCO4)n3cnnc23)cc1 [Example 37, N-((5-fluoro-2,3-dihydrobenzofuran-4-yl)methyl)-8-(4-(methylsulfonyl)phenyl)-[1,2,4]triazolo[4,3-c]pyrimidin-5-amine] | 7.68 | 7.91
Cc1cnc(C(F)(F)F)cc1-c1cnc(NCc2c(F)ccc3c2CCO3)n2cnnc12 [Example 184, N-((5-fluoro-2,3-dihydrobenzofuran-4-yl)methyl)-8-(5-methyl-2-(trifluoromethyl)pyridin-4-yl)-[1,2,4]triazolo[4,3-c]pyrimidin-5-amine] | 7.88 | 8.27
O=C1CN(c2ccc(-c3cnc(NCc4cccc5c4CCO5)n4cnnc34)cn2)CCN1 [Example 104, 4-(5-(5-(((2,3-dihydrobenzofuran-4-yl)methyl)amino)-[1,2,4]triazolo[4,3-c]pyrimidin-8-yl)pyridin-2-yl)piperazin-2-one] | 7.92 | 8.02
Cn1cc(-c2cnc(NCc3cccc4c3CCO4)n3cnnc23)cn1 [Example 25, N-((2,3-dihydrobenzofuran-4-yl)methyl)-8-(1-methyl-1H-pyrazol-4-yl)-[1,2,4]triazolo[4,3-c]pyrimidin-5-amine] | 7.35 | 7.51
Cc1cn(-c2cnc(NCc3c(F)ccc4c3CCO4)n3cnnc23)c(C)n1 [Example 236, 8-(2,4-dimethyl-1H-imidazol-1-yl)-N-((5-fluoro-2,3-dihydrobenzofuran-4-yl)methyl)-[1,2,4]triazolo[4,3-c]pyrimidin-5-amine] | 7.63 | 7.99
